Values quoted from earlier work in patent publication US8945630B2, “Method of producing and applications of composition of hypochlorous acid” (Aquilabs S.A., priority 2008, dated 2015).

Conditions: at 25° C.

Q: With `OCl` [Hypochlorous acid] as the molecule, how does the dissociation constant read?
A: 2.9×10^−8
